Results on 5 molecules are retold here after publication PMC10180515, “Biological Evaluation of Triorganotin Derivatives as Potential Anticancer Agents” (Molecules, 2023).

Each structure is given as a SMILES string. “And” between values parts separate entries of the source, which are not always exact repeats. Equal values may be shown once. Read-outs that look alike come from different tables or passages of the source. A value given as a limit tells only on which side of the number the result lay.

Series [1] has as its system CAL-27 cells. The series can be described thus: Annexin-V/7-AAD double staining flow cytometry, CAL-27. To be noted: CAL-27, 4 h; TBT-OCOCF3 20 µM, WMN 0.5 µM; mean ± SD. It is filed as cell-based, human. For orientation: A flow cytometer gives signals particle by particle.
Series [2] relates to U937 cells. It counts as cell-based. To be noted: 18 h.
Series [3] has as its system MCF-10A cells. The series can be described thus: MTT assay of metabolic activity, MCF-10A. It counts as cell-based, human. In general terms: Tetrazolium assays rely on reduction of a dye to a coloured formazan, in cell work by metabolically active cells.
Series [4] deals with CAL-27 cells. Briefly: MTT assay of metabolic activity, CAL-27. It is filed as cell-based, human.
The subject of the next series is PBMCs. The series can be described thus: MTT assay of metabolic activity, PBMCs. It is filed as cell-based, human.
For series [5], the system named is U937 cells. Briefly: MTT assay of metabolic activity, U937. It counts as cell-based.
The subject of series [6] is MCF-10A cells. To be noted: 2-NBDG, 1 h, 10 μM and 20 μM.
The conditions of series [7]: phosphate buffer pH 7.4, 37 °C, nominal concentration 400 µM. The method, then: For the NMR studies, the compounds were dissolved in DMSO-d6 and a phosphate buffer (50 mM, 5% D2O, pH = 7.4) containing, as an internal standard, 2,2,4,4-tetradeuterumtrimethylsilylpropionic acid (TSP). The NMR experiments were performed in D2O at 25 °C and recorded with a Bruker Avance spectrometer operating at 700 MHz for ^1H, equipped with a 5 mm inverse TXI probe, z-axis gradients, and a Sample Xpress Lite autosampler. The ^1H-NMR spectra were recorded with a spectral window of 15 ppm, 16 k complex points, and a relaxation delay of 10 s for a total of 16 transients.

In series [8] the test system is CAL-27 cells. The series can be described thus: Trypan blue exclusion viability test, CAL-27. The following applies: CAL-27, 24 h. It is filed as cell-based, human.
The test system of series [9] is CAL-27 cells. The following applies: CAL-27, 2-NBDG, 1 h, 10 μM and 20 μM.
Series [10] concerns MCF-10A cells. The series can be described thus: Trypan blue exclusion viability test, MCF-10A. The following applies: 24 h. It is filed as cell-based, human.
Series [11] has as its system CAL-27 cells, MCF-10A cells, PBMCs, and U937 cells. To be noted: read-out: IC50 metabolic activity (MTT) in all tested cells; 24 h.
The next series relates to 12 bp DNA duplex. The series can be described thus: NMR interaction with 12 bp DNA duplex. It is filed as binding. The following applies: 0.2 mM duplex, 6 h incubation; cisplatin two equivalents, TBT-OCOCF3 two or five equivalents. The procedure:
In order to investigate the mechanisms underlying the cytotoxicity exerted by TBT-OCOF3, a first approach was to verify whether they were based on a direct interaction with DNA, similar to what was described for metal derivatives such as cisplatin. To this purpose, we investigated if TBT-OCOCF3 could bind to DNA using NMR. For TBT-OCOCF3, the 1D and 2D spectra of 12 bp DNA were acquired in the presence or absence of the compound. As a positive control for the interaction, cisplatin was assayed, which forms adducts or inter- and intra-strand crosslinks resulting in interference in the replication machinery, G2/M cell arrest, and cell death by apoptosis or necrosis. A solution containing 0.2 mM of the duplex, whose sequences are indicated in Figure 3, was annealed directly in the NMR tube. The double-helix formation was confirmed by the appearance of low-field signals belonging to the T- and G-NH groups (Figure 3a, left panel). The DNA’s aromatic signals were assigned to the different types of ^1H nuclei using a combination of ^1H-NMR and ^1H-^1H TOCSY experiments (Figure S3 in the Supplementary Materials) and chemical shift values (Figure 3a, right panel).

Setting [12] is: 24 h, ± SD, three experiments in triplicate.
The mark [13] stands for this setting: 20–80 μM, even at the higher concentration tested.

For the molecule `COC[C@H]1OC(=O)c2coc3c2[C@@]1(C)C1=C(C3=O)[C@@H]2CCC(=O)[C@@]2(C)C[C@H]1OC(C)=O` [WMN, wortmannin], in the series on CAL-27 cells [1], the “Anx+/7AAD+ cells” value came to 0.78 ± 0.04%, the “Anx+/7AAD- cells” value is 6.42 ± 2.45%, the “Anx-/7AAD+ cells” value was determined as 2.99 ± 0.02% and the Anx-/7AAD- cells was determined as 89.8 ± 4.63%. The “Effect on rapamycin-induced autophagy” value with U937 cells [2] (U937, wortmannin 0.5 μM cotreatment with rapamycin 0.5 μM) is “significantly inhibited”.

Usually IC50 stands for the concentration that inhibits the measured activity by half. Broadly, the Solubility is the concentration that dissolves in the medium under given conditions. Turning to `CCC[CH2][Sn]([CH2]CCC)([CH2]CCC)[O][Sn]([CH2]CCC)([CH2]CCC)[CH2]CCC` [TBT-O, bis(tributyltin) oxide], the IC50 was determined as 4930 ± 2330 nM in the series on MCF-10A cells [3], 13200 nM in the series with CAL-27 cells [4], 2960 ± 1350 nM in the series with PBMCs and 1820 ± 210 nM with U937 cells [5]. In addition, the Glucose uptake inhibition entry in the series with MCF-10A cells [6] and in the series with CAL-27 cells [9] was “significantly inhibited” throughout. In series [7], this molecule yielded a Solubility of 42 µM. Moreover, the “Effect on trypan-blue-negative (viable) cells recovered” value in the series with CAL-27 cells [8] (10 µM and 20 µM) was “complete inhibition”. Further, the Inhibition of viability in the series with MCF-10A cells [10] (5 µM) came out at 90%; in the series with MCF-10A cells [10] (10 µM and 20 µM), 100%.

Consider `CO[C@H]1C[C@@H]2CC[C@@H](C)[C@@](O)(O2)C(=O)C(=O)N2CCCC[C@H]2C(=O)O[C@H]([C@H](C)C[C@@H]2CC[C@@H](O)[C@H](OC)C2)CC(=O)[C@H](C)/C=C(\C)[C@@H](O)[C@@H](OC)C(=O)[C@H](C)C[C@H](C)/C=C/C=C/C=C/1C` [rapamycin], for which the “Autophagic-specific fluorescent green signal compared to control cells” value with U937 cells [2] (U937, 0.5 μM) is on record as “significant increase”.

Take `CCC[CH2][Sn]([Cl])([CH2]CCC)[CH2]CCC` [TBT-Cl, tributyltin chloride]: the IC50 in the series with MCF-10A cells [3] was 1220 ± 410 nM; in the series on CAL-27 cells [4], 910 ± 530 nM; with PBMCs, at most 1000 nM; in the series on U937 cells [5], 420 ± 300 nM; in series [11], ≤ 1000 nM and ~1000 nM. For the same molecule, in [7], the Solubility was 61 µM. Further, the “Effect on number of viable cells” value in the series on CAL-27 cells [8] (all of the concentrations tested (1.25 to 20 μM)) is on record as “greatly decreased the number of viable cells”. The molecule also yielded an Inhibition of viability with MCF-10A cells [10] (all of the tested concentrations (1.25 to 20 μM)) of at least 90%.

`N.N.[Cl][Pt][Cl]` [Cisplatin, cis-diaminedichloroplatinum (II)]: the “Interaction with 12 bp DNA (change in NMR spectrum)” value with 12 bp DNA duplex was “showed evidence of the interaction”. Besides, the IC50 in the series with MCF-10A cells [3] (setting [12]) is 21500 ± 40 nM; with CAL-27 cells [4] (setting [12]) it was 139000 ± 59500 nM; in the series on PBMCs (24 h, ± SD, IL-2 stimulated PBMCs of healthy individuals) it was 52500 ± 5880 nM; in the series on U937 cells [5] (setting [12]) it was 38100 ± 3230 nM. For the same molecule, the “Susceptibility of cells to treatment (viable cell number)” value in the series on CAL-27 cells [8] (setting [13]) and with MCF-10A cells [10] (setting [13]) was “resistant” each time.
